From ChEMBL document CHEMBL1201862, “PubChem BioAssay data set” (2004)
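Where inhibition never reached the appropriate level, the endpoint shown equals the highest concentration tested. Otherwise, values were interpolated linearly from a five-concentration, 48-hour dose response in 96-well plates. GI50 is the concentration that inhibits growth by half.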 The source made the active and inactive calls. Rule as the data show it: active = GI50 up to about 1.1 µM and inactive = higher.

Key:
Assay in all cases: growth of human tumour cells (NCI), 48 h
[1] = system: OVCAR-8
[2] = system: NCI-H23
[3] = system: HT-29
[4] = system: SF-539
[5] = system: CCRF-CEM
[6] = system: 786-0
[7] = system: SNB-75
[8] = system: A498
[9] = system: UACC-257
[10] = system: NCI-H522
[11] = system: HOP-62
[12] = system: SK-MEL-28
[13] = system: SF-295
[14] = system: UO-31
[15] = system: SK-MEL-5
[16] = system: M19-MEL
[17] = system: EKVX
[18] = system: HOP-92
[19] = system: Hs-578T
[20] = system: BT-549

Row | SMILES | GI50 [1] | GI50 [2] | GI50 [3] | GI50 [4] | GI50 [5] | GI50 [6] | GI50 [7] | GI50 [8] | GI50 [9] | GI50 [10] | GI50 [11] | GI50 [12] | GI50 [13] | GI50 [14] | GI50 [15] | GI50 [16] | GI50 [17] | GI50 [18] | GI50 [19] | GI50 [20]
1 | COc1cccc2[s+]snc12 | 26.9 µM (inactive) | 57.7 µM (inactive) | 96.8 µM (inactive) | 35.8 µM (inactive) | > 10 µM (inactive) | 33.6 µM (inactive) | 69.3 µM (inactive) | 95.7 µM (inactive) | 30.1 µM (inactive) | > 10 µM (inactive) | 61.7 µM (inactive) | > 100 µM (inactive) | 46.3 µM (inactive) | 25.1 µM (inactive) | 24.3 µM (inactive) | 22.8 µM (inactive) | > 100 µM (inactive) |  |  | 
2 | C#CCC(O)c1ccccc1C(O)CC#C (configuration not stated) | > 100 µM (inactive) | > 100 µM (inactive) | > 100 µM (inactive) |  | > 100 µM (inactive) | > 100 µM (inactive) | 28.2 µM (inactive) |  | > 100 µM (inactive) | 70.1 µM (inactive) | > 100 µM (inactive) | > 100 µM (inactive) | > 100 µM (inactive) | > 100 µM (inactive) | > 100 µM (inactive) | > 100 µM (inactive) | > 100 µM (inactive) | 30.8 µM (inactive) |  | 
3 | C=CCC12CCC(=O)C=C1CCC1(C2)OCCO1 (configuration not stated) | > 100 µM (inactive) |  |  | > 100 µM (inactive) | 53.1 µM (inactive) | > 100 µM (inactive) | > 100 µM (inactive) | > 100 µM (inactive) | > 100 µM (inactive) | > 100 µM (inactive) | > 100 µM (inactive) | > 100 µM (inactive) |  | > 100 µM (inactive) | > 100 µM (inactive) | > 100 µM (inactive) | > 100 µM (inactive) |  |  | 
4 | O=C1C(=O)N(c2ccc(Cl)cc2)C(=O)C(=O)C1c1nc2ccccc2s1 | > 100 µM (inactive) | > 100 µM (inactive) | > 100 µM (inactive) | 74.3 µM (inactive) |  | > 100 µM (inactive) | > 100 µM (inactive) |  | > 100 µM (inactive) | > 100 µM (inactive) | 42.7 µM (inactive) | > 100 µM (inactive) | > 100 µM (inactive) | > 100 µM (inactive) | > 100 µM (inactive) | > 100 µM (inactive) | > 100 µM (inactive) | > 100 µM (inactive) |  | 
5 | O=C1CCCc2cc3c(cc21)CC1(C3)Cc2cc3c(cc2C1)C(=O)CCC3 | 3.04 µM (inactive) | 2.2 µM (inactive) | 0.743 µM (active) | 1.12 µM (active) | 0.998 µM (active) | 2.58 µM (inactive) | 2.2 µM (inactive) | 5.45 µM (inactive) | 2.28 µM (inactive) | 0.679 µM (active) | 2.29 µM (inactive) | 3.23 µM (inactive) | 0.923 µM (active) | 5.55 µM (inactive) | 0.532 µM (active) |  | 5.48 µM (inactive) | 6.78 µM (inactive) | 2.64 µM (inactive) | 0.653 µM (active)
6 | CNc1nc2c(C)ccc3nc(N(C)C)[nH]c3c-2n1 | 34.5 µM (inactive) | 32.9 µM (inactive) | 30.7 µM (inactive) | 24.8 µM (inactive) | 81.8 µM (inactive) | 51.3 µM (inactive) | 41.8 µM (inactive) | 85.1 µM (inactive) | 33.3 µM (inactive) | 54 µM (inactive) | 43.7 µM (inactive) | 52 µM (inactive) | 55.5 µM (inactive) | 34.6 µM (inactive) | 20.7 µM (inactive) |  | 30.1 µM (inactive) | > 100 µM (inactive) | 97.9 µM (inactive) | 84.7 µM (inactive)
7 | CSC1=C(C)S/C(=C\c2ccc(/C=C3\SC(C)=C(SC)S3)cc2)S1 | > 100 µM (inactive) | > 100 µM (inactive) | > 100 µM (inactive) | 5.33 µM (inactive) | > 100 µM (inactive) | > 100 µM (inactive) | 41.6 µM (inactive) | > 100 µM (inactive) | > 100 µM (inactive) | > 100 µM (inactive) | 33.5 µM (inactive) | > 100 µM (inactive) | 88.9 µM (inactive) | > 100 µM (inactive) | > 100 µM (inactive) |  | > 100 µM (inactive) | 39.3 µM (inactive) | 83 µM (inactive) | > 100 µM (inactive)
8 | COc1cc(-c2c(C)c(C)nc(OC)c2C#N)cc(OC)c1OC | > 100 µM (inactive) | > 100 µM (inactive) | > 100 µM (inactive) | > 100 µM (inactive) | > 100 µM (inactive) | > 100 µM (inactive) | 44.2 µM (inactive) | > 100 µM (inactive) | 82.2 µM (inactive) |  | > 100 µM (inactive) | > 100 µM (inactive) | 53.6 µM (inactive) | 31.5 µM (inactive) | > 100 µM (inactive) | > 100 µM (inactive) | > 100 µM (inactive) | 21.3 µM (inactive) |  | 
9 | CC(C)=NOC(=O)CNC(=O)C(Cc1ccccc1)NC(=O)C(C)NC(=O)OC(C)(C)C (configuration not stated) | > 100 µM (inactive) | > 100 µM (inactive) | > 100 µM (inactive) | > 100 µM (inactive) | > 100 µM (inactive) | > 100 µM (inactive) | > 100 µM (inactive) | > 100 µM (inactive) | > 100 µM (inactive) | > 100 µM (inactive) | > 100 µM (inactive) | > 100 µM (inactive) | > 100 µM (inactive) | > 100 µM (inactive) | > 100 µM (inactive) |  | > 100 µM (inactive) | > 100 µM (inactive) | > 100 µM (inactive) | > 100 µM (inactive)
10 | N#CC(C#N)c1ccc(C(=O)N2CCC[C@H]2CO)cc1 | > 100 µM (inactive) | > 100 µM (inactive) | > 100 µM (inactive) | > 100 µM (inactive) | > 100 µM (inactive) | > 100 µM (inactive) | > 100 µM (inactive) |  | > 100 µM (inactive) | > 100 µM (inactive) | > 100 µM (inactive) | > 100 µM (inactive) | > 100 µM (inactive) | > 100 µM (inactive) | 0.471 µM (active) | > 100 µM (inactive) | > 100 µM (inactive) | 58.2 µM (inactive) |  | 
11 | CCCC1N2CCCCC2[C@@H]2c3[nH]c4ccccc4c3CCN12 (some centres not stated) | > 100 µM (inactive) | > 100 µM (inactive) | > 100 µM (inactive) | > 100 µM (inactive) | > 100 µM (inactive) | > 100 µM (inactive) | 32.3 µM (inactive) | > 100 µM (inactive) | > 100 µM (inactive) |  | > 100 µM (inactive) | > 100 µM (inactive) | > 100 µM (inactive) | > 100 µM (inactive) | > 100 µM (inactive) | > 100 µM (inactive) | > 100 µM (inactive) | > 100 µM (inactive) |  | 
12 | O=c1cccccc1NCCCCCCCCCNc1cccccc1=O | 13.6 µM (inactive) | 5.26 µM (inactive) | 15.7 µM (inactive) | 6.68 µM (inactive) | 5.94 µM (inactive) | 22.1 µM (inactive) | 17.9 µM (inactive) |  | 2.12 µM (inactive) | 13.9 µM (inactive) | 15.1 µM (inactive) |  | 9.64 µM (inactive) | 12 µM (inactive) |  | 15.2 µM (inactive) | 4.56 µM (inactive) | 18.7 µM (inactive) |  | 
13 | O=C1OC(CCCN2CCCCC2)(c2ccccc2)CC12CCCC2 (configuration not stated) | > 100 µM (inactive) | > 89.7 µM (inactive) | 37.3 µM (inactive) | 49.1 µM (inactive) | 54.5 µM (inactive) | > 100 µM (inactive) | 23 µM (inactive) | 57.4 µM (inactive) | 23.1 µM (inactive) | > 100 µM (inactive) | > 100 µM (inactive) | 22.3 µM (inactive) | > 84.9 µM (inactive) | 73.1 µM (inactive) | 18.7 µM (inactive) |  | > 100 µM (inactive) | 2.1 µM (inactive) | 63.1 µM (inactive) | > 100 µM (inactive)
14 | N#CC(C(=O)C(N)=O)c1ccccc1Cl (configuration not stated) | > 100 µM (inactive) | > 100 µM (inactive) | > 100 µM (inactive) | > 100 µM (inactive) | > 100 µM (inactive) | > 100 µM (inactive) | > 100 µM (inactive) | > 100 µM (inactive) | > 100 µM (inactive) |  |  | > 100 µM (inactive) | > 100 µM (inactive) | > 100 µM (inactive) | > 100 µM (inactive) | > 100 µM (inactive) | > 100 µM (inactive) |  |  | 
15 | Cn1c(-c2cccs2)cc(-c2cccs2)c1-c1ccco1 | > 100 µM (inactive) | 3.02 µM (inactive) | > 67.6 µM (inactive) | > 100 µM (inactive) | 28.8 µM (inactive) | 69.2 µM (inactive) | 31.8 µM (inactive) | 27.7 µM (inactive) | 39.9 µM (inactive) | 21.2 µM (inactive) | > 92 µM (inactive) | 49.1 µM (inactive) | 29.4 µM (inactive) | 31.5 µM (inactive) | 23.8 µM (inactive) |  | 16.6 µM (inactive) | 63 µM (inactive) | 26.5 µM (inactive) | > 100 µM (inactive)
16 | O=C(NC12CC3CC(CC(C3)C1)C2)n1cnc2cncnc21 | 30.1 µM (inactive) | 37.8 µM (inactive) | 28.4 µM (inactive) | 25.1 µM (inactive) | 26.5 µM (inactive) | 50.1 µM (inactive) | 44.5 µM (inactive) | 65.9 µM (inactive) | 56.5 µM (inactive) | 16.1 µM (inactive) | 18.2 µM (inactive) | > 100 µM (inactive) | 21.6 µM (inactive) | 91.2 µM (inactive) | 16.1 µM (inactive) |  | 37.6 µM (inactive) | 28.2 µM (inactive) | 54.6 µM (inactive) | 46.8 µM (inactive)
